# Assay results: paper PMC8044178, “Structural basis of norepinephrine recognition and transport inhibition in neurotransmitter transporters” (Nature Communications, 2021)
# Several values for one entry are separate records, joined by “and”; a condition that tells them apart may be missing. Equal values may be shown once.
# What was measured:
# dDATmfc = target: T1, dDATmfc (Drosophila melanogaster, UniProt Q7K4Y6, DEL162-202/F471L/L415A/V74A); assay: [3H] nisoxetine binding, scintillation proximity assay, purified dDATmfc; settings: for Specific CPM/p.mole protein: DATmfc, single replicates
# T1 construct: GFP-8x-His (C); made in house; host or cells: HEK293S GnTI- cells, BacMam baculovirus transduction
# Protocol: (§1) Binding assays were performed with 20 nM of purified dDAT protein by scintillation proximity assay. For determining nisoxetine Kd, [^3H] Nisoxetine (Perkin Elmer) (in 1:5 molar ratio) was used in the range of 0.1 nM to 500 nM with 100 µM desipramine added to the control samples. Competition assays were done with 50 nM [^3H] […] The assays were done in 1 mM DDM, 0.2 mM CHS, 20 mM Tris-Cl (pH 8), 300 mM NaCl and 5% glycerol. The background values were subtracted to plot the final curves in GraphPad prism v5.0.1 and the Kd values were calculated. The IC50 values obtained from binding competition assays were used to deduce the Ki values by Cheng–Prusoff’s equation.
# WT dDAT = settings: read-out: nisoxetine-binding affinity Kd; cited from earlier work
# hNET = settings: read-out: nisoxetine-binding affinity Kd; cited from earlier work
# dDATNET = target: T2, dDATNET (Drosophila melanogaster, UniProt Q7K4Y6, D121G/DEL162-202/F471L/L415A/S426M/V74A); assay: [3H] nisoxetine binding, scintillation proximity assay, purified dDATNET; settings: for Specific CPM/p.mole protein: DAT_NET, single replicates
# T2 construct: GFP-8x-His (C); made in house; host or cells: HEK293S GnTI- cells, BacMam baculovirus transduction
# Protocol: as §1
# dDAT D121G/S426M = settings: cited from earlier work
Structure (SMILES),Kd (dDATmfc) [nM],Specific CPM/p.mole protein (dDATmfc; Nisox 0.1 nM),Specific CPM/p.mole protein (dDATmfc; Nisox 1 nM),Specific CPM/p.mole protein (dDATmfc; Nisox 3 nM),Specific CPM/p.mole protein (dDATmfc; Nisox 10 nM),Specific CPM/p.mole protein (dDATmfc; Nisox 30 nM),Specific CPM/p.mole protein (dDATmfc; Nisox 100 nM),Specific CPM/p.mole protein (dDATmfc; Nisox 300 nM),Specific CPM/p.mole protein (dDATmfc; Nisox 500 nM),Kd (WT dDAT) [nM],Kd (hNET) [nM],Specific CPM/p.mole protein (dDATNET; Nisox 0.1 nM) [CPM/p.mole protein],Specific CPM/p.mole protein (dDATNET; Nisox 100 nM),Specific CPM/p.mole protein (dDATNET; Nisox 300 nM),Specific CPM/p.mole protein (dDATNET; Nisox 500 nM),"Kd (dDATNET; Nisoxetine Kd, dDATNET) [nM]","Kd (dDATNET; dissociation constants (Kd) for nisoxetine, range over the dDAT constructs used in this study (dDATNET, dDATmfc)) [nM]",increment in ability to compete for nisoxetine / affinity with hNET-like mutations D121G and S426M in subsite B (dDAT D121G/S426M) [fold]
CNCCC(Oc1ccccc1OC)c1ccccc1 (stereo not drawn) [nisoxetine],3.82 ± 0.39,7 CPM/p.mole protein and 10 CPM/p.mole protein and 3 CPM/p.mole protein and 24 CPM/p.mole protein and 15 CPM/p.mole protein (2×) and 14 CPM/p.mole protein and 9 CPM/p.mole protein and 6 CPM/p.mole protein,126 CPM/p.mole protein and 128 CPM/p.mole protein and 141 CPM/p.mole protein and 114 CPM/p.mole protein and 102 CPM/p.mole protein and 95 CPM/p.mole protein and 97 CPM/p.mole protein and 78 CPM/p.mole protein and 120 CPM/p.mole protein,292 CPM/p.mole protein and 269 CPM/p.mole protein and 300 CPM/p.mole protein and 210 CPM/p.mole protein and 245 CPM/p.mole protein and 211 CPM/p.mole protein and 113 CPM/p.mole protein and 184 CPM/p.mole protein and 198 CPM/p.mole protein,455 CPM/p.mole protein (2×) and 499 CPM/p.mole protein and 413 CPM/p.mole protein (2×) and 477 CPM/p.mole protein and 371 CPM/p.mole protein (2×) and 397 CPM/p.mole protein,491 CPM/p.mole protein and 537 CPM/p.mole protein and 503 CPM/p.mole protein and 506 CPM/p.mole protein and 442 CPM/p.mole protein (2×) and 439 CPM/p.mole protein and 427 CPM/p.mole protein and 408 CPM/p.mole protein,566 CPM/p.mole protein and 545 CPM/p.mole protein and 533 CPM/p.mole protein and 507 CPM/p.mole protein and 558 CPM/p.mole protein and 473 CPM/p.mole protein and 465 CPM/p.mole protein and 441 CPM/p.mole protein and 405 CPM/p.mole protein,627 CPM/p.mole protein and 611 CPM/p.mole protein and 570 CPM/p.mole protein and 569 CPM/p.mole protein and 527 CPM/p.mole protein and 520 CPM/p.mole protein and 528 CPM/p.mole protein and 490 CPM/p.mole protein and 436 CPM/p.mole protein,632 CPM/p.mole protein and 609 CPM/p.mole protein and 595 CPM/p.mole protein and 628 CPM/p.mole protein and 619 CPM/p.mole protein and 565 CPM/p.mole protein and 554 CPM/p.mole protein and 465 CPM/p.mole protein and 467 CPM/p.mole protein,5,1.9,20,565 CPM/p.mole protein and 636 CPM/p.mole protein and 590 CPM/p.mole protein and 524 CPM/p.mole protein and 548 CPM/p.mole protein and 546 CPM/p.mole protein and 490 CPM/p.mole protein and 531 CPM/p.mole protein and 494 CPM/p.mole protein,687 CPM/p.mole protein and 533 CPM/p.mole protein (2×) and 630 CPM/p.mole protein and 583 CPM/p.mole protein and 563 CPM/p.mole protein and 581 CPM/p.mole protein and 730 CPM/p.mole protein and 516 CPM/p.mole protein,735 CPM/p.mole protein and 683 CPM/p.mole protein and 709 CPM/p.mole protein and 618 CPM/p.mole protein and 586 CPM/p.mole protein and 593 CPM/p.mole protein and 630 CPM/p.mole protein and 670 CPM/p.mole protein and 642 CPM/p.mole protein,2.79 ± 0.27,2.8 to 3.8,
COC(=O)[C@H]1[C@@H](OC(=O)c2ccccc2)C[C@@H]2CC[C@H]1N2C [cocaine],,,,,,,,,,,,,,,,,,10
